Measured values published in US20090263451A1, “Anti-Inflammatory and/or Analgesic Agents for Treatment of Myofascial Pain” (Warsaw Orthopedic, Inc., priority 2008, published 2009).

Experiments:
[1] = system: Rat Chronic Constriction Injury Model; settings: 0.02 mg/kg/day subcutaneously; vs. 45% for unloaded polymer depots; FIG. 3
From the text: (§1) A 2-month chronic constriction injury (CCI) model of neuropathic pain was used to evaluate different formulations of a clonidine, encapsulated in bioerodable polymers compared to clonidine given subcutaneously (SC).
(§2) The inventors evaluated the efficacy of a five Month Clonidine/Polymer Drug Depot in the Rat Chronic Constriction Injury Model. The animal model was the Bennett Model (Wistar rat). The purpose: To determine whether a five month polymer clonidine-eluting depot can improve pain associated behavioral responses in a rat model of neuropathic pain.
(§3) Experimental Design: Four loose chromic gut ligatures, 1 mm apart, were tied around the common sciatic nerve at mid-thigh. Each animal received treatment of test or control article-according to the dosing described in Table 5.
(§4) The inventors have conducted the present study for a period of 64 days and have employed the following two tests: (1) the Hargreaves test; and (2) the von Frey test. The Hargreaves Tests of Thermal Hyperalgesia were conducted on days 7, 14, 21, 28, 35, 42, 49, 56 and 63. The von Frey monofilament test of mechanical allodynia (performed the day following Thermal testing) were conducted on days-8, 15, 22, 29, 36, 43, 50, 57 and 64.

[2] = system: Rat Chronic Constriction Injury Model; settings: 0.02 mg/kg/day subcutaneously; compared to unloaded polymer depots; FIG. 4
From the text: as §1, §2, §3, §4

## Clc1cccc(Cl)c1N=C1NCCN1 [clonidine, 2,6-dichloro-N-2-imidazolidinyldenebenzenamine]
[1]
  pain behavioral response (percentage of baseline), thermal hyperalgesia: 58%
[2]
  pain behavioral response (percentage of baseline), mechanical allodynia: reduced the behavioral response
